{
  "source": "patent US6231894A",
  "about": "“Treatments based on discovery that nitric oxide synthase is a paraquat diaphorase” (Duke University, priority 1999, dated 2001)",
  "key": {"[1]": {"biological_target": "T1, Recombinant rat neuronal nitric oxide synthase (NOS1) (Rattus norvegicus, UniProt P29476)", "T1 construct": "purchased Oxis, Portland, Oreg", "T1 sequence (P29476 whole entry)": "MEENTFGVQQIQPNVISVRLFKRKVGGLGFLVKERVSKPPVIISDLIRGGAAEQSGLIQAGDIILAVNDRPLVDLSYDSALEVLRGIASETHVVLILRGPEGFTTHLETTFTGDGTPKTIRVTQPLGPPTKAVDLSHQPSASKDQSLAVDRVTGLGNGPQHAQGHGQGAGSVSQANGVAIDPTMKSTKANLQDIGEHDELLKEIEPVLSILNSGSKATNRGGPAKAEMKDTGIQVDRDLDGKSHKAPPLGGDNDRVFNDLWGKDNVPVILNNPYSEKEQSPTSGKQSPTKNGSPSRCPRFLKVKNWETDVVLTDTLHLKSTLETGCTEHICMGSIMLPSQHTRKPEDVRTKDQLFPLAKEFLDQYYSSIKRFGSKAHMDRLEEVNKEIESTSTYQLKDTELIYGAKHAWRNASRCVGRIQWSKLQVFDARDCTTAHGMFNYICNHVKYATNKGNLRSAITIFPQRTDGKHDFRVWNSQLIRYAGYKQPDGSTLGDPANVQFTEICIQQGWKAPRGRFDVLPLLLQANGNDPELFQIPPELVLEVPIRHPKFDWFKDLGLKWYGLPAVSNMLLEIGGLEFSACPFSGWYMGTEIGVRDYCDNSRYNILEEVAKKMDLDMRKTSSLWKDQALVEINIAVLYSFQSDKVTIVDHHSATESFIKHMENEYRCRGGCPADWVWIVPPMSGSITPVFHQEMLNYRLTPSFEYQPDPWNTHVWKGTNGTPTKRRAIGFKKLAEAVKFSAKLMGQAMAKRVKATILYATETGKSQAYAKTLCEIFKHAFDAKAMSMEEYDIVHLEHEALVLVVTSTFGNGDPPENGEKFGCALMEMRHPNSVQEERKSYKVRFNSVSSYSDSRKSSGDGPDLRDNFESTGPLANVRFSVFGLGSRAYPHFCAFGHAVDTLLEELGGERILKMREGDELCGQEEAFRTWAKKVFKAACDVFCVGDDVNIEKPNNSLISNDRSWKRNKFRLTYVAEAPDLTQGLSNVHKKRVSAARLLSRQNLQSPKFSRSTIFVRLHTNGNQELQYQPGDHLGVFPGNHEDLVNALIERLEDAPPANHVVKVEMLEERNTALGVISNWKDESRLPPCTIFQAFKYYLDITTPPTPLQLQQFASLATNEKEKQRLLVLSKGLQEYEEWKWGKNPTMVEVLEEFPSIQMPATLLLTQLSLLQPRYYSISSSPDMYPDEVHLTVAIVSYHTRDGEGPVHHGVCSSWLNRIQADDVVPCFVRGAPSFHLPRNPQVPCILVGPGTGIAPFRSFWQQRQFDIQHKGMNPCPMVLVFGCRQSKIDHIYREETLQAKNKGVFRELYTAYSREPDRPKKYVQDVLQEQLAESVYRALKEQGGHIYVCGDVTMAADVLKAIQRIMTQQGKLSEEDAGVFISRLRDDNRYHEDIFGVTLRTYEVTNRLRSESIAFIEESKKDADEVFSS", "test": "NADPH oxidation (paraquat diaphorase activity) by recombinant rat neuronal nitric oxide synthase", "type": "biochemical", "method": "Recombinant rat neuronal nitric oxide synthase (NOS1, Oxis, Portland, Oreg.), a constitutive enzyme, was used to assay NADPH oxidation in the presence of increasing concentrations of paraquat. Reactions (0.2 ml) were performed in bis-tris propane buffer (40 mM) containing L-arginine (1 mM), CaCl2 (1.2 mM), EDTA (0.9 mM), NADPH (0.35 mM), dithiothreitol (3 mM), tetrahydrobiopterin (4 μM), catalase (1 μg/ml) and calmodulin (200 U/ml) at pH 7.4. Reactions were initiated by the addition of 1.5 U of NOS1, and the oxidation of NADPH was continuously monitored at 340 nm for 1 minute at 37° C. in a plate reader. The rate of NOS-mediated NADPH oxidation was determined using an extinction coefficient of 6.22 mM^-1 cm^-1 after subtracting the baseline of NADPH oxidation.\nThe experiment of Background Example 1 for NADPH oxidation was carried out in the presence and absence of 25 μM paraquat, without any NOS inhibitor (control), in the presence of L-NAME (1 mM) or in the presence of 1 mM L-NMMA. […] Only L-NAME shut down the NADPH oxidase activity."}, "squamous cell carcinoma": {"system": "squamous cell carcinoma", "test": "Working Example VI: mouth squamous cell carcinoma patient", "type": "in vivo, human", "settings": "5 cc swish and spit, 100 μM", "method": "A mouth lesion is noted in a smoker during a routine dental visit. The lesion is found to be a squamous cell carcinoma. […] The patient is given a 5 cc solution of paraquat swish and spit (at a dose of 100 μM)."}, "nitrotyrosine": {"system": "nitrotyrosine", "test": "Nitrotyrosine staining in macrophages", "type": "cell-based", "settings": "combination of paraquat and cytomix", "method": "Western blot analysis was carried out as follows. Cells were lysed in ice-cold 50 mM Tris buffer (pH 7.4) containing 1% sodium dodecyl sulfate and protease inhibitor cocktail (Boehringer Mannheim). Protein (10 μg) was separated on a 4-20% gradient SDS-PAGE at 250 V for 30 minutes and transferred onto a nitrocellulase membrane at 30 V for 12 hours. Proteins were detected using polyclonal antibodies against human NOS3 (TransductionLaboratories; 1/1000) and nitrated keyhole limpet hemocyanin, nitrotyrosine (Upstate Biology; 1/5000). Primary antibodies were detected with a goat anti-rabbit-HRP antibody (Jackson; 1/15,000) and developed using an ECL kit (Amersham).\nThe RAW-264.7 monocyte macrophage cells line (TIB-71) was purchased from the American Type Culture Collection (Manassas, Va.). The cells were grown in T-75 flasks containing DMEM (Gibco-BRL, Grand Island, N.Y.) supplemented with 1 mM pyruvate, 4.5 g/L glucose and […] fetal bovine serum Macrophages were plated at 2.0×10^4 cells/well in 24-well plates and experiments were performed when cells were near confluence. […]\nNOS2 was induced in RAW cells using a mixture of interferon-γ and lipopolysaccharide (LPS) referred to as \"cytomix.\" Unstimulated (basal) and activated (cytomix) macrophages were treated with 0.1 mM paraquat or not treated with paraquat and cytotoxicity and NO production were assessed at 24 hours."}, "[2]": {"system": "CPA-47 endothelial cell line", "test": "LDH release from endothelial cells (cytotoxicity)", "type": "cell-based", "settings": "2 mM paraquat, 24 hours; FIG. 2(b)", "method": "To test whether the above effect was present in intact cells, endothelial cell cultures, constitutively expressing NOS3 protein as determined by western blot analysis, were treated with 2 mM paraquat in the presence of increasing concentrations of either L-NAME or L-NMMA.\nThe endothelial cells were obtained as follows: CPA-47 endothelial cell line (CRL-1733) was purchased from American Type Culture Collection (Manassas, Va.). Endothelial cells were grown in T-75 flasks containing Ham's F-12 K medium supplemented by 1 mM […] and 10% equine serum (Gibco-BRL, Grand Island, N.Y.). Endothelial cells were plated at 3.5×10^4 cells/well in 24-well plates and experiments were performed 48 hours later when cells were near confluence. Medium was changed to minimal essential medium without serum supplement. Endothelial cells were from passages 30-36.\nCytotoxicity was measured as the percent release of LDH and compared to vehicl-treated cells (basal). The percent release of cytosolic lactate dehydrogenase (LDH) into the culture medium was used to assess the integrity of the cell membrane. LDH activity was measured by following the loss of NADH at 340 nm as described in Day, B. J., et al., J. Pharmacol. Exp. Ther. 275, 1227-1232 (1995). The percent release of LDH into the culture medium 24 hours after the paraquat treatment was used to assess cell injury."}, "Rabbit aortic rings [3]": {"system": "Rabbit aortic rings", "test": "Acetylcholine-induced (EDRF) relaxation of aortic rings", "method": "Rabbit aortic rings were treated with increasing concentrations of paraquat or L-NAME (2 mM) prior to initiating a constriction response with 1 μM phenylephrine (initial contraction).\n(§1) New Zealand white male rabbits weighting 3-4 kg were anaesthetized with phenobarbital (30 mg/kg/iv). The descending thoracic aorta was isolated and placed in Krebs-Henseleit buffer (pH 7.4) and stored at 4° C. until used. The vessels were cut into 5 mm rings and submerged in 25 ml double jacketed tissue baths containing Krebs-Henseleit buffer bubbled with 95% oxygen and 5% carbon dioxide at 37° C. Rings were hung on stainless steel stirrups connected to calibrated force transducers. Rings were equilibrated with 2 g resting tension for 1 hour before use and contracted with phenylephrine (1 μM). Rings were incubated with paraquat for 15 minutes before acetylcholine-induced or exogenous relaxations were performed.\nEndothelial-derived relaxing factor (EDRF) responses were initiated by addition of acetylcholine."}, "Rabbit aortic rings [4]": {"system": "Rabbit aortic rings", "test": "Exogenous NO-induced relaxation of aortic rings", "settings": "2 mM paraquat, phenylephrine 1 μM; FIG. 3(b)", "method": "as §1\nIn another case, rabbit aortic rings were constricted with 1 μM phenylephrine (initial contraction) and relaxed with increasing concentration of NO in the presence or absence of 2 mM paraquat. The results are shown in FIG. 3(b) where relaxations are expressed as a percent of the initial phenylephrine-induced contraction."}},
  "data": [
    {"compound": "C[n+]1ccc(-c2cc[n+](C)cc2)cc1", "note": "[paraquat]", "values": [
      {"measurement": "increase in NADPH oxidation over the basal rate", "setting": "[1]; 25 μM paraquat without NOS inhibitor, FIG. 2(a)", "value": "about three-fold"},
      {"measurement": "NOS diaphorase / superoxide formation", "setting": "[1]; conclusion of Background Example 1", "value": "is an NOS diaphorase and causes superoxide formation"},
      {"measurement": "paraquat diaphorase activity of NOS1", "setting": "[1]; in the presence of 1 mM L-arginine", "value": "NOS1 was found to exhibit paraquat diaphorase activity"},
      {"measurement": "NADPH oxidation", "setting": "[1]; increasing paraquat concentrations, 1 mM L-arginine, pH 7.4, 37° C., FIG. 1(a)", "value": "concentration-dependent increase in NADPH oxidation"},
      {"measurement": "adverse effect", "setting": "squamous cell carcinoma", "value": "complicating oral ulcerations"},
      {"measurement": "tumor regression", "setting": "squamous cell carcinoma; seven days", "value": "tumor is found to have regressed"},
      {"measurement": "nitrotyrosine staining", "setting": "nitrotyrosine", "value": "A decrease in nitrotyrosine staining"},
      {"measurement": "increase in LDH release", "setting": "[2]", "value": "three-fold"},
      {"measurement": "EDRF responses / vessel constriction, conclusion", "setting": "Rabbit aortic rings [3]; conclusion of Background Example 3", "value": "blocks EDRF responses and thereby constricts blood vessels"},
      {"measurement": "inhibition of EDRF-induced relaxation, in words", "setting": "Rabbit aortic rings [3]; increasing paraquat, 15 min before acetylcholine, phenylephrine 1 μM, FIG. 3(a)", "value": "dose-dependent inhibition of EDRF-induced relaxation"},
      {"measurement": "effect on exogenously added NO-induced relaxation", "setting": "Rabbit aortic rings [4]", "value": "did not inhibit exogenously added NO-induced relaxation"}
    ]}
  ]
}
